Measurements taken from US20120238615A1, “Alpha adrenergic receptor modulators” (Allergan, Inc., priority 2009, published 2012).

Biological target: T1, alpha-2C (Homo sapiens, UniProt P18825)
T1 construct: expressed in transfected cells
T1 sequence (P18825 1-462): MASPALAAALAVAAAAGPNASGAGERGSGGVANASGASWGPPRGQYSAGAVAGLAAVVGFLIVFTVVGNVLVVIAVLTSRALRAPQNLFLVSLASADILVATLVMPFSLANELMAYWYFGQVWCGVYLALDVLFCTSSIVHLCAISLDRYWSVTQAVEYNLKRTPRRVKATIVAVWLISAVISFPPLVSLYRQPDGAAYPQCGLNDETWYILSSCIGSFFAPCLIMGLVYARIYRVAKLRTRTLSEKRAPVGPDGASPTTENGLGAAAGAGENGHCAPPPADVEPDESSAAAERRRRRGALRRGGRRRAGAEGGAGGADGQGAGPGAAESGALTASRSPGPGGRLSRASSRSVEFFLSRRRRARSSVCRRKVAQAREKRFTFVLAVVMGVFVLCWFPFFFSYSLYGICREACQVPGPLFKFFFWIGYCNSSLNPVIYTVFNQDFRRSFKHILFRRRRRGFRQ
Assay: FLIPR calcium assay for alpha adrenergic activity
Format: cell-based
Settings: cells expressing alpha-2C and G-protein (Gqi5 or G16); for EC50: fluo-4 calcium signal, agonist, read-out: Potency (nM) Alpha 2C (EC50); for efficacy Alpha 2C (relative efficacy compared to a standard full agonist, in parentheses): relative to norepinephrine
Text: Compounds described herein were synthesized and tested for alpha adrenergic activity using a Fluorometric Imaging plate Reader (FLIPR) assay (Princen et al., 2003, Cytometry Part A. 51, pp. 35-45). Cells expressing the receptor of interest (alpha-2C) and a G-protein (Gqi5 or G16) are loaded with fluo-4, a calcium sensitive dye. After removal of excess dye by washing, the cells are placed in the FLIPR TETRA instrument. Baseline fluorescence readings are taken prior to addition of the compounds. Agonists will trigger the receptor to interact with the G-protein, leading to an increase in intracellular calcium. The increase in intracellular calcium causes an increase in the fluorescence of the cells, due to the presence of fluo-4. This fluorescence increase is recorded by the FLIPR TETRA. After the calcium transient signal has decreased towards baseline, the standard agonist norepinephrine is added. If the compound is an antagonist, an initial calcium signal will not be generated and the antagonist will prevent the generation of a calcium signal from norepinephrine. The level of fluorescence is compared to that of norepinephrine, and the EC50 of the compound determined by curve fitting. […] The compounds described herein activate alpha adrenergic receptors.

Compound | EC50 [nM] | efficacy Alpha 2C (relative efficacy compared to a standard full agonist, in parentheses)
Cc1cccc(NC2=NCCC2)c1Br [Compound 1, N-(2-bromo-3-methyl-phenyl)-3,4-dihydro-2H-pyrrol-5-amine] | 663 | (1)
COc1c(Cl)cccc1NC1=NCCC1 [Compound 2, N-(3-chloro-2-methoxyphenyl)-3,4-dihydro-2H-pyrrol-5-amine] | 975 | (1)
Cc1c(Cl)cccc1NC1=NCCC1 [Compound 3, N-(3-chloro-2-methylphenyl)-3,4-dihydro-2H-pyrrol-5-amine] | 71 | (1)
Cc1cccc(NC2=NCCC2)c1Cl [Compound 4, N-(2-chloro-3-methylphenyl)-3,4-dihydro-2H-pyrrol-5-amine] | 635 | (1)
COc1c(C)cccc1NC1=NCCC1 [Compound 5, N-(2-methoxy-3-methylphenyl)-3,4-dihydro-2H-pyrrol-5-amine] | 243 | (1)
Fc1c(Cl)cccc1NC1=NCCC1 [Compound 6, N-(3-chloro-2-fluorophenyl)-3,4-dihydro-2H-pyrrol-5-amine] | 26 | (1)
COc1cccc(NC2=NCCC2)c1Br [Compound 7, N-(2-bromo-3-methoxyphenyl)-3,4-dihydro-2H-pyrrol-5-amine] | 32 | (1)
COc1cccc(NC2=NCCC2)c1C [Compound 8, N-(3-methoxy-2-methylphenyl)-3,4-dihydro-2H-pyrrol-5-amine] | 186 | (1)
Cc1c(F)cccc1NC1=NCCC1 [Compound 9, N-(3-fluoro-2-methylphenyl)-3,4-dihydro-2H-pyrrol-5-amine] | 756 | (1)
Cc1c(Br)cccc1NC1=NCCC1 [Compound 10, N-(3-bromo-2-methylphenyl)-3,4-dihydro-2H-pyrrol-5-amine] | 288 | (1)
Clc1ccccc1NC1=NCCC1 [Compound 11, N-(2-chlorophenyl)-3,4-dihydro-2H-pyrrol-5-amine] | 709 | (1)
Clc1cccc(Cl)c1NC1=NCCC1 [Compound 12, N-(2,6-dichlorophenyl)-3,4-dihydro-2H-pyrrol-5-amine] | 44 | (1)
Cc1ccccc1NC1=NCCC1 [Compound 13, N-(2-methylphenyl)-3,4-dihydro-2H-pyrrol-5-amine] | 743 | (1)
FC(F)(F)c1ccccc1NC1=NCCC1 [Compound 14, N-[2-(trifluoromethyl)phenyl]-3,4-dihydro-2H-pyrrol-5-amine] | 796 | (1)
Cc1cccc(C)c1NC1=NCCC1 [Compound 15, N-(2,6-dimethylphenyl)-3,4-dihydro-2H-pyrrol-5-amine] | 348 | (1)
Cc1cccc(NC2=NCCC2)c1C [Compound 16, N-(2,3-dimethylphenyl)-3,4-dihydro-2H-pyrrol-5-amine] | 118 | (1)
